US12606542B2, “[(1,5-diheteroaryl-1H-1,2,4-triazol-3-yl)oxy] acetic acid derivatives as safeners for the protection of useful plants and crop plants” (BAYER AKTIENGESELLSCHAFT, priority 2020, dated 2026)

System: summer wheat (TRZAS; cv. Triso)
Assay: Reduction of damage by mesosulfuron-methyl on summer wheat (greenhouse safener test, post-emergence)
Assay type: in vivo
Design: key: 0: no reduction in damage (appearance corresponding to the herbicide control); 1: slight reduction in damage; 2: distinct reduction in damage; 3: significant reduction in damage; 4: complete reduction in damage (appearance corresponding to the untreated control)
Conditions: safener 100 g/ha as WP spray at early leaf stage (BBCH10-BBCH12), then mesosulfuron-methyl 40-60 g/ha; visual assessment 9-13 days after application; crop plant TRZAS
Experimental: 2.1 Relative Action of Selected Compounds of the Invention Using the Example of Reduction of Damage by Mesosulfuron-Methyl on Summer Wheat (TRZAS) The seeds of the crop plants to be treated are laid out in sandy loam in plastic pots (diameter ˜4 cm), covered with soil and grown in a greenhouse under good conditions for germination and growth. The trial plants were treated at the early leaf stage (BBCH10-BBCH12). In the course of this, the inventive compounds of the general formula (I) formulated in the form of wettable powders (WP) were sprayed onto the above-ground parts of the plants as an aqueous suspension with a water application rate corresponding to 800 l/ha with addition of wetting agent (e.g. 0.2% Genapol-LRO or 0.2% Mero) in the specified dose. This was followed by the application of the herbicide. For this purpose, mesosulfuron-methyl, formulated in the form of water-dispersible granules (WG), was sprayed onto the above-ground parts of the plants in the form of an aqueous dispersion with a water application rate corresponding to 800 l/ha with addition of wetting agent (e.g. 0.2% Genapol-LRO or 1 l/ha Biopower) in a dose of 40-60 g/ha. […] 9-13 days after application, the efficacy of the test compounds was assessed visually. […]

## COC(=O)COc1nc(-c2ccc(F)cn2)n(-c2ccc(Cl)cn2)n1 [Example I.31-10, Methyl {[1-(5-chloropyridin-2-yl)-5-(5-fluoropyridin-2-yl)-1H-1,2,4-triazol-3-yl]oxy}acetate]
  Efficacy of the safener (efficacy code): 2
